From publication PMC10135567, “New Indole-3-Propionic Acid and 5-Methoxy-Indole Carboxylic Acid Derived Hydrazone Hybrids as Multifunctional Neuroprotectors” (Antioxidants, 2023)
pIC50: −log10 of the molar value. Entries after “also recorded” stand apart in the source; their conditions may differ.

Key:
[1] = Stability by UV-vis measurements at different pH; format: physicochemical; conditions: 50 µM, pH 2, 4.5, 7.4 and 8.4, after 1, 2, 3 and 24 h
Protocol: The stability of the compounds was also considered a potential issue. Therefore, selected compounds (3a, 3d, 5d, and 5e at a concentration of 50 µM) were studied by UV-vis measurements under different pH conditions, including pH 2, 4.5, 7.4, and 8.4, to represent different physiological (gastric, intestinal, etc.) conditions.

[2] = test system: isolated rat-brain synaptosomes; assay: Level of reduced glutathione (GSH) in isolated synaptosomes, substances administered alone; conditions: 100 µM
Protocol: Preparation of the synaptosomes was carried out by multiple centrifugations using the Percoll gradient. Homogenization of the brains was performed in 10 volumes of cold buffer 1, which contained 5 mM HEPES and 0.32 M sucrose (pH = 7.4), followed by centrifugation at different speeds. For preparation of the gradient, the synaptosomes were isolated by Percoll reagent. Synaptosomes were resuspended and incubated in buffer 2, which contained 290 mM NaCl, 0.95 mM MgCl2x6H2O, 10 mM KCl, 2.4 mM CaCl2xH2O, 2.1 mM NaH2PO4, 44 mM HEPES, and 13 mM D-glucose. Incubations were performed in a 5% CO2 + 95% O2 atmosphere. The method of Lowry et al., using bovine serum albumin as a standard content, was applied for determination of synaptosomal protein [51].
After the treatment with the tested compounds, the glutathione levels of the synaptosomes were determined with an Ellman reagent (DTNB). The GSH levels were evaluated based on the synaptosomal sediment, precipitated with 5% TCA, and centrifuged for 10 min at 4000× g. GSH levels in the supernatant were measured spectrophotometrically at 412 nm by a Spectro UV-vis split spectrophotometer (LaboMed. Inc., Los Angelis, California, USA). […]

[3] = test system: zonula occludens-1 (ZO-1), tight junctions between bEnd3 cells; assay: Immunofluorescence of ZO-1 (tight junctions) in bEnd3 cells; format: cell-based, mouse; conditions: 90 min
Protocol: Immunofluorescence of zonula occludens-1 (ZO-1) was performed to determine the in vitro effect of the compounds on tight junctions (TJs) between bEnd3 cells. The experiment was conducted simultaneously with the permeability assay. Briefly, cells were seeded on cover slides in 24-well plates at a concentration of 3.5 × 10^4 cells/well and incubated for 3–4 d at 37 °C and 5% CO2 in a humidified atmosphere, until they reached 100% confluence. The cells were then treated with 10 and 50 µM concentrations of the compounds for 90 min. After the allotted treatment time, the cells were fixed with ice-cold acetone at −20 °C for 10 min; blocked with 1% bovine serum albumin (BSA, cat. no. 9048-46-8, Acros Organics, Thermo Fischer Scientific, Waltham, MA, USA) in PBS, containing 0.1% Tween® 20 (cat. no. P1379, Sigma-Aldrich Co. LLC, St. Louis, MO, USA); and labeled with anti-ZO-1 (rabbit polyclonal antibody, 1:500, cat. no. ab96587, Abcam, Cambridge, UK) at 4 °C overnight. The slides were then incubated with a secondary donkey anti-rabbit Alexa Fluor™ 555 antibody (1:1000, cat. no. 4413S, Molecular Probes, Thermo Fischer Scientific, Waltham, MA, USA) for 1 h at room temperature (RT) in the dark. […] Fluorescence microscopy was performed on a spinning disk confocal microscope system (Andor Dragonfly 505, Oxford Instruments, Abingdon, UK) with 60 × oil NA 1.4 objective, with em./ex. = 561/617 nm for ZO-1 and 405/445 nm for DAPI. The obtained data were analyzed with Fiji and compiled via the FigureJ plugin [46].
To further explore the neuroprotective effect of the compounds, we tested their ability to influence the BBB and its permeability, utilizing a static BBB model with brain microvascular endothelial cell line bEnd3 [36], as it would be essential for the compounds to pass the BBB and protect the neuronal cells. […] Here, we determined any changes in the permeability of the BBB by imitating an endothelial barrier via a static BBB model of bEnd3 cells (Figure 11a,c,e). […]

SH-SY5Y cells = assay: MTT cell viability assay (cytotoxicity), SH-SY5Y
Procedure, shortened: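 SH-SY5Y cells seeded at 2 × 10^4 cells/well, adhered 24 h, then exposed to compounds (1–500 μM) for 24 h at 37 °C, 5% CO2; DMSO ≤0.5% as solvent control. MTT (0.5 mg/mL) added for 3 h, formazan dissolved, absorbance read at 570 nm; ≥6 wells per concentration.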

COc1cc(C=NNC(=O)CCc2c[nH]c3ccccc23)ccc1O [Compound 3d, N′-(4-Hydroxy-3-methoxybenzylidene)-3-(1H-indol-3-yl)propanehydrazide]
stability (UV-vis spectra over time) [1]: stable over time

COc1cc(C=NNC(=O)CCc2c[nH]c3ccccc23)cc(OC)c1O [Compound 3f, N′-(4-Hydroxy-3,5-dimethoxybenzylidene)-3-(1H-indol-3-yl)propanehydrazide]
reduction of GSH level vs. non-treated synaptosomes [2]: 40%

COc1ccc2[nH]c(C(=O)NN=Cc3cccc(O)c3O)cc2c1 [Compound 5a, N′-(2,3-Dihydroxybenzylidene)-5-methoxy-1H-indole-2-carbohydrazide]
effect on tight junctions (ZO-1 distribution) ([3]; 10 µM): without affecting the TJs

COc1ccc2[nH]c(C(=O)NN=Cc3ccc(O)c(O)c3)cc2c1 [Compound 5b, N′-(3,4-Dihydroxybenzylidene)-5-methoxy-1H-indole-2-carbohydrazide]
effect on tight junctions (ZO-1 distribution) ([3]; 10 µM): without affecting the TJs

COc1ccc(C=NNC(=O)c2cc3cc(OC)ccc3[nH]2)c(O)c1 [Compound 5e, N′-(2-Hydroxy-4-methoxybenzylidene)-5-methoxy-1H-indole-2-carbohydrazide]
effect on tight junctions (ZO-1 distribution) ([3]; 10 and 50 µM): appears to disrupt TJs | stability (UV-vis spectra over time) [1]: stable over time; also recorded: very good stability

COc1ccc2[nH]cc(CCNC(C)=O)c2c1 [Melatonin]
reduction of GSH level vs. non-treated synaptosomes [2]: did not decrease

N′-(4-Hydroxy-2-methoxybenzylidene)-3-(1H-indol-3-yl)propanehydrazide [Compound 3e]
pIC50 (SH-SY5Y cells): < 3.30
